Source: US8044100B2, “Methods and compositions for treating amyloid-related diseases” (Bellus Health Inc., priority 2004, dated 2011)

Experiments:
[1] = tested on: amyloid plaques in the brains of TgCRND8 mice; experiment: ThioS histology of brain sections of TgCRND8 mice: number of plaques and area occupied; type: in vivo, mouse; conditions: for Change in Plaque Area / Change in Plaque Number: 16 wks, ThioS
Description: For the ThioS studies, the plaques in the brains of the mice were quantified as follows. Mice were transcardially perfused with saline solution. Brains were dissected out and separated in 2 hemispheres. The left hemisphere was immersed in freshly-prepared 4% paraformaldehyde for 3 hrs at 4° C., then transfered into 30% sucrose at 4° C. When cryoprotection was achieved (24-48 hours), brains were frozen in isopentane at −45° C. and subsequently stored at −80° C. until sectioning. Coronal 40 μm-thick sections were performed, and stained with thioflavin S (1% solution in water) for 8 min. After differentiation of the thioflavin S staining, sections were counterstained with hematoxylin for 5 minutes. Two sets of pictures were captured simultaneously. A first set of pictures was captured under brightfield illumination to obtain morphological details of the section; a second set of pictures was captured under a green, specific, fluorescent filter (fluorescein filter, Ex 495 nm, Em 525 nm). Image analysis to quantify the number of plaques and the area occupied by these plaques was performed using Image Pro Plus software (Media Cybernetics, MD, USA).
Increases in the areas and numbers of plaques are indicated using “+” symbols, while decreases in the areas and numbers of the plaques are indicated using “−” symbols.
Specifically, increases in the areas and numbers of plaques (relative to vehicle treated control) of 10 to 19.99% are scored as “+”. Decreases in the areas and numbers of plaques of 10 to 19.99% are scored as “−”. Additionally, changes of 9.99% or less in either direction are scored as “0”.

[2] = tested on: Aβ peptides (Aβ40, Aβ42) in the plasma and brain of TgCRND8 mice; experiment: Short term treatment (14 or 28 days) in TgCRND8 mice: Aβ levels in plasma and brain by ELISA; type: in vivo, mouse; conditions: for Aβ40 Change Insoluble / Aβ42 Change Insoluble / Aβ42 Change Soluble / Aβ40 Change Soluble: brain homogenate; for Aβ42 Change / Aβ40 Change: plasma;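 as to Aβ40 Change Insoluble: symbols grade percent change in Aβ versus untreated control with plus for increase and minus for decrease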;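 as to Aβ40 Change Soluble: symbols grade percent change in Aβ versus untreated control with plus for increase and minus for decrease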;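 as to Aβ42 Change Insoluble: symbols grade percent change in Aβ versus untreated control with plus for increase and minus for decrease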
Description: The short term therapeutic effect of 19 compounds of the invention was studied. These compounds were administered over a 14 or 28 day period at the end of which the levels of Aβ peptides in the plasma and brain of TgCRND8 animals were determined.
Male and female transgenic mice from the 3rd and 4th B6C3F1 generations were used in this example and given daily subcutaneous or oral administrations of one of a series of compounds for 14 or 28 days. The following abbreviations are used to designate these animals from the 3rd and 4th generation backcross in the present protocol: TgCRND8-2.B6C3F1(N3); TgCRND8-2.B6C3F1 (N4).
Baseline animals (Group 1) consisted of naive TgCRND8-2. B6C3F1(N3) at 11±1 weeks of age. These mice were used to determine the Aβ levels in the plasma and brain of naive transgenic animals at the initiation of treatment.
Starting at 11 weeks of age (±1 week) animals received daily administration of their respective treatment for a period of 14 or 28 days (groups 2-21), at a dose of 250 mg/kg at 10 ml/kg or of vehicle only (water; group 2) or 1% methyl cellulose only (group 21). The route of administration was subcutaneous for water-soluble compounds and oral for compounds solubilized in methylcellulose 1%. (MC 1%). At the end of the treatment periods, plasma and perfused brains were collected for quantification of Aβ levels.
At 11±1 weeks of age for the Baseline group, and at the end of the treatment period (14 or 28 days) for Groups 2 to 21, at 24 hours after the last compound administration animals were sacrificed and samples collected. An approximate blood volume of 500 μl was collected from the orbital sinus and kept on ice until centrifugation at 4° C. at a minimum speed of 3,000 rpm for 10 minutes. Plasma samples were immediately frozen and stored at −80° C. pending analysis. The brains were removed, frozen, and stored at −80° C. awaiting analysis.
Brains were weighted frozen and homogenized with 4 volumes of ice cold 50 mM Tris-Cl pH 8.0 buffer with protease inhibitor cocktail (4 mL of buffer for 1 g of wet brain). Samples were spun at 15000 g for 20 minutes and the supernatants were transferred to fresh tubes. One hundred fifty (150) μl from each supernatant were mixed with 250 μl of 8M guanidine-HCL/50 mM Tris-HCL pH 8.0 (ratio of 0.6 vol supernatant:1 vol 8M guanidium/Tris-HCL 50 mM pH8.0) and 400 μL 5 M guanidium/Tris-HCL 50 mM pH8.0 were added. The tubes were vortexed for 30 seconds and frozen at −80° C. In parallel, pellets were treated with 7 volumes of 5 M guanidine-HCL/50 mM Tris-HCL pH 8.0 (7 mL of guanidine for 1 g of wet brain), vortexed for 30 seconds and frozen at −80° C. Samples were thawed at room temperature, sonicated at 80° C. for 15 minutes and frozen again. This cycle was repeated 3 times to ensure homogeneity and samples were returned to −80° C. pending analysis.
Aβ levels were evaluated in plasma and brain samples by ELISA using Human Aβ40 and Aβ42 Fluorometric ELISA kits from Biosource (Cat. No. 89-344 and 89-348) according to manufacturer's recommended procedures. In short, samples were thawed at room temperature, sonicated for 5 minutes at 80° C. (sonication for brain homogenates; no sonication for plasma samples) and kept on ice. Aβ peptides were captured using 100 μl of the diluted samples to the plate and incubated without shaking at 4° C. overnight. The samples were aspirated and the wells were rinsed 4 times with wash buffer obtained from the Biosource ELISA kit. The anti-Aβ40 or anti-Aβ42 rabbit polyclonal antiserum (specific for the Aβ40 or Aβ42 peptide) was added (100 μl) and the plate was incubated at room temperature for 2 hours with shaking. The wells were aspirated and washed 4 times before adding 100 μl of the alkaline phosphatase labeled anti-rabbit antibody and incubating at room temperature for 2 hours with shaking. The plates were then rinsed 5 times and the fluorescent substrate (100 μl) was added to the plate. […]

[3] = Day 14, methylcellulose group, daily oral
[4] = Day 28, methylcellulose group, daily oral
[5] = 30 mg/kg, ThioS staining of brain sections, preliminary
[6] = Day 14, vehicle group, 250 mg/kg daily
[7] = Day 28, vehicle group, 250 mg/kg daily
[8] = Day 14, vehicle (water) group, 250 mg/kg daily subcutaneous

## O=S(=O)(O)CCCNC12CC3CC(CC(C3)C1)C2 [BW]
[1]; 30 mg/kg
  Change in Plaque Area: 0 (changes of 9.99% or less in either direction)
  Change in Plaque Number: 0 (changes of 9.99% or less in either direction)
[1]; 100 mg/kg
  Change in Plaque Area: 0 (changes of 9.99% or less in either direction)
  Change in Plaque Number: − (Decreases in the areas and numbers of plaques of 10 to 19.99%)
[2]; [3]
  Aβ40 Change Insoluble: −−− (decreases of 39% or more)
  Aβ42 Change Insoluble: −−− (decreases of 39% or more)
  Aβ42 Change Soluble: −− (decreases of 20 to 38%)
[2]; [4]
  Aβ40 Change Insoluble: − (Decreases in the levels of Aβ of 5 to 19%)
  Aβ40 Change Soluble: − (Decreases in the levels of Aβ of 5 to 19%)
  Aβ42 Change Insoluble: −− (decreases of 20 to 38%)
  Aβ42 Change Soluble: − (Decreases in the levels of Aβ of 5 to 19%)
  Aβ42 Change: + (increases in the levels of Aβ (relative to untreated control) of 20 to 39%)

## CC(C)(C)NCCCS(=O)(=O)O [BX, 3-(t-butyl)amino-1-propanesulfonic acid]
[1]; 30 mg/kg
  Change in Plaque Area: − (Decreases in the areas and numbers of plaques of 10 to 19.99%)
  Change in Plaque Number: − (Decreases in the areas and numbers of plaques of 10 to 19.99%)
[1]; [5]
  area occupied by the plaques: decreased
  number of plaques: decreased
[1]; 100 mg/kg
  Change in Plaque Area: + (increases in the areas and numbers of plaques (relative to vehicle treated control) of 10 to 19.99%)
  Change in Plaque Number: 0 (changes of 9.99% or less in either direction)
[2]; after 14 and 28 days of treatment
  levels of Aβ peptides in the plasma: significant increase
[2]; [6]
  Aβ40 Change Insoluble: −−− (decreases of 39% or more)
  Aβ40 Change Soluble: − (Decreases in the levels of Aβ of 5 to 19%)
  Aβ42 Change Insoluble: −−− (decreases of 39% or more)
  Aβ42 Change Soluble: −− (decreases of 20 to 38%)
[2]; [7]
  Aβ40 Change Insoluble: −−− (decreases of 39% or more)
  Aβ40 Change Soluble: −−− (decreases of 39% or more)
  Aβ42 Change Insoluble: − (Decreases in the levels of Aβ of 5 to 19%)
  Aβ42 Change Soluble: −− (decreases of 20 to 38%)
[2]; [8]
  Aβ40 Change: +++ (increases of 70% or higher)
  Aβ42 Change: ++ (increases of 40 to 69%)
[2]; Day 28, vehicle (water) group, 250 mg/kg daily subcutaneous
  Aβ40 Change: +++ (increases of 70% or higher)
